Here are results for 17 compounds from patent US20170355705A1 (GlaxoSmithKline Intellectual Property (No.2) Limited, priority 2014, published 2017).

The structures appear in SMILES notation.

The assay has as its target T1, SIRT1 (Homo sapiens, UniProt Q96EB6).
T1 sequence (Q96EB6 1-747): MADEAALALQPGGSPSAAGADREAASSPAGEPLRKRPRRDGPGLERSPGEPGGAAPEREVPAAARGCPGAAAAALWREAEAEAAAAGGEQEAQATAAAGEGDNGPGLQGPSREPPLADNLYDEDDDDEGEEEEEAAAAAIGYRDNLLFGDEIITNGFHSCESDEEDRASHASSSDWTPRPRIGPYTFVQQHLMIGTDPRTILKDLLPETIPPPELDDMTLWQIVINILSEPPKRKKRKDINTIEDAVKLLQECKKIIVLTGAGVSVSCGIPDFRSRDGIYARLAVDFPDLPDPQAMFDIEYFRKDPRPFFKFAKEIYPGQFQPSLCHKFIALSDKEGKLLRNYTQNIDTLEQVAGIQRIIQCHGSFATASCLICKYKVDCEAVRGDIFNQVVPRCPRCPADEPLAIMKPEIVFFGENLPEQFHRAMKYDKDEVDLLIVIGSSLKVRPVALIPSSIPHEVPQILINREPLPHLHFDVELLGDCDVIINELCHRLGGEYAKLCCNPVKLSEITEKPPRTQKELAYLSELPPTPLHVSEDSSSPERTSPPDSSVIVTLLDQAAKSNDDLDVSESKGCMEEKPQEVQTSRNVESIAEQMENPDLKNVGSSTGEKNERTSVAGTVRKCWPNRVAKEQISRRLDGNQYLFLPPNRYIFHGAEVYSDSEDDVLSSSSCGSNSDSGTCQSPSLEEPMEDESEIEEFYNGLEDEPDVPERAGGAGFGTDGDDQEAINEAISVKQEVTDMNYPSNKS
Description: Trp mass spectrometry assay of SIRT1 activity (EC1.5, percent maximum activation). In kind it is biochemical. Particulars: Trp mass spectrometry assay; for TRP Activity (EC1.5): EC1.5 = concentration giving 150% activation of SIRT1; for TRP MAX RESP (percent maximum fold activation): percent maximum activation of SIRT1. In short, it runs like this: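 Mass spectrometry read-out (OAADPR formed, or deacetylated Trp peptide) after a 25 min NAD-dependent deacetylation by E. coli-expressed His-SIRT1, stopped with formic acid.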

Consider `O=C(Nc1cncc(OCCCO)n1)N1c2nc(-c3cccc(C(F)(F)F)c3)c(Cl)cc2N2CC[C@H]1C2` [Example 73, (4S)-8-chloro-N-(6-(3-hydroxypropoxy)pyrazin-2-yl)-7-(3-(trifluoromethyl)phenyl)-3,4-dihydro-1,4-methanopyrido[2,3-b][1,4]diazepine-5(2H)-carboxamide], for which the “TRP Activity (EC1.5)” value is listed as “A (EC1.5<1 μM)” and the “TRP MAX RESP (percent maximum fold activation)” value is given as “A (Fold activation ≧150%)”.

`O=C(Nc1cc(OC[C@@H](O)CO)ncn1)N1c2nc(-c3cccc(C(F)(F)F)c3)c(Cl)cc2N2CC[C@H]1C2` [Example 75, (4S)-8-chloro-N-(6-((S)-2,3-dihydroxypropoxy)pyrimidin-4-yl)-7-(3-(trifluoromethyl)phenyl)-3,4-dihydro-1,4-methanopyrido[2,3-b][1,4]diazepine-5(2H)-carboxamide]: the “TRP Activity (EC1.5)” value is given as “B (EC1.5 1-25 μM)” and the “TRP MAX RESP (percent maximum fold activation)” value is “A (Fold activation ≧150%)”.

For the compound `O=C(Nc1ccc(OC[C@H](O)CO)cn1)N1c2nc(-c3cccc(C(F)(F)F)c3)c(Cl)cc2N2CC[C@H]1C2` [Example 76, (4S)-8-chloro-N-(5-((R)-2,3-dihydroxypropoxy)pyridin-2-yl)-7-(3-(trifluoromethyl)phenyl)-3,4-dihydro-1,4-methanopyrido[2,3-b][1,4]diazepine-5(2H)-carboxamide], the “TRP Activity (EC1.5)” value is given as “A (EC1.5<1 μM)” and the “TRP MAX RESP (percent maximum fold activation)” value was “A (Fold activation ≧150%)”.

For `O=C(Nc1ccc(OC[C@H](O)CO)nc1)N1c2nc(-c3cccc(C(F)(F)F)c3)c(Cl)cc2N2CC[C@H]1C2` [Example 77, (4S)-8-chloro-N-(6-((R)-2,3-dihydroxypropoxy)pyridin-3-yl)-7-(3-(trifluoromethyl)phenyl)-3,4-dihydro-1,4-methanopyrido[2,3-b][1,4]diazepine-5(2H)-carboxamide], the “TRP Activity (EC1.5)” value is listed as “A (EC1.5<1 μM)” and the “TRP MAX RESP (percent maximum fold activation)” value was “A (Fold activation ≧150%)”.

`O=C(Nc1cncc(OC[C@@H](O)CO)c1)N1c2nc(-c3cccc(C(F)(F)F)c3)c(Cl)cc2N2CC[C@H]1C2` [Example 78, (4S)-8-chloro-N-(5-((S)-2,3-dihydroxypropoxy)pyridin-3-yl)-7-(3-(trifluoromethyl)phenyl)-3,4-dihydro-1,4-methanopyrido[2,3-b][1,4]diazepine-5(2H)-carboxamide]: the “TRP Activity (EC1.5)” value was “A (EC1.5<1 μM)” and the “TRP MAX RESP (percent maximum fold activation)” value is on record as “A (Fold activation ≧150%)”.

As for `O=C(Nc1cccc(OCCO)n1)N1c2nc(-c3cccc(C(F)(F)F)c3)c(Cl)cc2N2CC[C@H]1C2` [Example 79, (4S)-8-chloro-N-(6-(2-hydroxyethoxy)pyridin-2-yl)-7-(3-(trifluoromethyl)phenyl)-3,4-dihydro-1,4-methanopyrido[2,3-b][1,4]diazepine-5(2H)-carboxamide], the “TRP Activity (EC1.5)” value is recorded as “A (EC1.5<1 μM)” and the “TRP MAX RESP (percent maximum fold activation)” value is on record as “A (Fold activation ≧150%)”.

Consider `O=C(Nc1cnc(OC[C@@H](O)CO)nc1)N1c2nc(-c3cccc(C(F)(F)F)c3)c(Cl)cc2N2CC[C@H]1C2` [Example 80, (4S)-8-chloro-N-(2-((S)-2,3-dihydroxypropoxy)pyrimidin-5-yl)-7-(3-(trifluoromethyl)phenyl)-3,4-dihydro-1,4-methanopyrido[2,3-b][1,4]diazepine-5(2H)-carboxamide], for which the “TRP Activity (EC1.5)” value is recorded as “A (EC1.5<1 μM)” and the “TRP MAX RESP (percent maximum fold activation)” value was “A (Fold activation ≧150%)”.

Turning to `O=C(Nc1ccc(OC[C@@H](O)CO)cn1)N1c2nc(-c3cccc(C(F)(F)F)c3)c(Cl)cc2N2CC[C@H]1C2` [Example 81, (4S)-8-chloro-N-(5-((S)-2,3-dihydroxypropoxy)pyridin-2-yl)-7-(3-(trifluoromethyl)phenyl)-3,4-dihydro-1,4-methanopyrido[2,3-b][1,4]diazepine-5(2H)-carboxamide], the “TRP Activity (EC1.5)” value is on record as “B (EC1.5 1-25 μM)” and the “TRP MAX RESP (percent maximum fold activation)” value was “A (Fold activation ≧150%)”.

`O=C(Nc1ncc(OC[C@H](O)CO)cn1)N1c2nc(-c3cccc(C(F)(F)F)c3)c(Cl)cc2N2CC[C@H]1C2` [Example 82, (4S)-8-chloro-N-(5-((R)-2,3-dihydroxypropoxy)pyrimidin-2-yl)-7-(3-(trifluoromethyl)phenyl)-3,4-dihydro-1,4-methanopyrido[2,3-b][1,4]diazepine-5(2H)-carboxamide]: the “TRP Activity (EC1.5)” value is “B (EC1.5 1-25 μM)” and the “TRP MAX RESP (percent maximum fold activation)” value is “A (Fold activation ≧150%)”.

For `O=C(Nc1ncc(OC[C@@H](O)CO)cn1)N1c2nc(-c3cccc(C(F)(F)F)c3)c(Cl)cc2N2CC[C@H]1C2` [Example 83, (4S)-8-chloro-N-(5-((S)-2,3-dihydroxypropoxy)pyrimidin-2-yl)-7-(3-(trifluoromethyl)phenyl)-3,4-dihydro-1,4-methanopyrido[2,3-b][1,4]diazepine-5(2H)-carboxamide], the “TRP Activity (EC1.5)” value was “B (EC1.5 1-25 μM)” and the “TRP MAX RESP (percent maximum fold activation)” value is given as “A (Fold activation ≧150%)”.

Regarding `Cc1cc(-c2cc(C)c3c(n2)N(C(=O)Nc2cccnc2)[C@H]2CCN3C2)ccn1` [Example 84, (4S)-9-methyl-7-(2-methylpyridin-4-yl)-N-(pyridin-3-yl)-3,4-dihydro-1,4-methanopyrido[2,3-b][1,4]diazepine-5(2H)-carboxamide], the “TRP Activity (EC1.5)” value is “A (EC1.5<1 μM)” and the “TRP MAX RESP (percent maximum fold activation)” value is on record as “A (Fold activation ≧150%)”.

For the compound `Cc1ncc(-c2ccnc(NC(=O)N3c4nc(-c5cccc(C(F)(F)F)c5)cc(C)c4N4CC[C@H]3C4)c2)o1` [Example 86, (4S)-9-methyl-N-(4-(2-methyloxazol-5-yl)pyridin-2-yl)-7-(3-(trifluoromethyl)phenyl)-3,4-dihydro-1,4-methanopyrido[2,3-b][1,4]diazepine-5(2H)-carboxamide], the “TRP Activity (EC1.5)” value is “A (EC1.5<1 μM)” and the “TRP MAX RESP (percent maximum fold activation)” value is given as “A (Fold activation ≧150%)”.

As for `Cc1cc(-c2cccc(C(F)(F)F)c2)nc2c1N1CC[C@@H](C1)N2C(=O)Nc1ccnc(OC[C@@H](O)CO)c1` [Example 87, (4S)-N-(2-((S)-2,3-dihydroxypropoxy)pyridin-4-yl)-9-methyl-7-(3-(trifluoromethyl)phenyl)-3,4-dihydro-1,4-methanopyrido[2,3-b][1,4]diazepine-5(2H)-carboxamide], the “TRP Activity (EC1.5)” value was “A (EC1.5<1 μM)” and the “TRP MAX RESP (percent maximum fold activation)” value is reported as “A (Fold activation ≧150%)”.

Consider `Cc1ccc2c(NC(=O)N3c4nc(-c5cccc(C(F)(F)F)c5)c(Cl)cc4N4CC[C@H]3C4)n[nH]c2n1` [Example 88, (4S)-8-chloro-N-(6-methyl-1H-pyrazolo[3,4-b]pyridin-3-yl)-7-(3-(trifluoromethyl)phenyl)-3,4-dihydro-1,4-methanopyrido[2,3-b][1,4]diazepine-5(2H)-carboxamide], for which the “TRP Activity (EC1.5)” value is on record as “A (EC1.5<1 μM)” and the “TRP MAX RESP (percent maximum fold activation)” value is given as “A (Fold activation ≧150%)”.

For `Cc1cc2c(nc1-c1cccc(C(F)F)c1)N(C(=O)Nc1ccnc(OC[C@@H](O)CO)c1)[C@H]1CCN2C1` [Example 89, (4S)-7-(3-(difluoromethyl)phenyl)-N-(2-((S)-2,3-dihydroxypropoxy)pyridin-4-yl)-8-methyl-3,4-dihydro-1,4-methanopyrido[2,3-b][1,4]diazepine-5(2H)-carboxamide], the “TRP Activity (EC1.5)” value is “A (EC1.5<1 μM)” and the “TRP MAX RESP (percent maximum fold activation)” value is on record as “A (Fold activation ≧150%)”.

Take `CCn1cc(-c2nc3c(cc2Cl)N2CC[C@@H](C2)N3C(=O)Nc2ccnc(OC[C@H](O)CO)c2)cn1` [Example 90, (4S)-8-chloro-N-(2-((R)-2,3-dihydroxypropoxy)pyridin-4-yl)-7-(1-ethyl-1H-pyrazol-4-yl)-3,4-dihydro-1,4-methanopyrido[2,3-b][1,4]diazepine-5(2H)-carboxamide]: the “TRP Activity (EC1.5)” value is listed as “B (EC1.5 1-25 μM)” and the “TRP MAX RESP (percent maximum fold activation)” value is recorded as “A (Fold activation ≧150%)”.

Take `Cc1cc(-c2nc3c(c(C)c2C)N2CC[C@@H](C2)N3C(=O)Nc2cccnc2)ccn1` [Example 91, (4S)-8,9-dimethyl-7-(2-methylpyridin-4-yl)-N-(pyridin-3-yl)-3,4-dihydro-1,4-methanopyrido[2,3-b][1,4]diazepine-5(2H)-carboxamide]: the “TRP Activity (EC1.5)” value is reported as “B (EC1.5 1-25 μM)” and the “TRP MAX RESP (percent maximum fold activation)” value is “A (Fold activation ≧150%)”.
